One block for each compound: values may come before it.
How the values were obtained:
Format in all cases: cell-based
human NaV1.6 (hNaV1.6) = target: T1, human NaV1.6 (hNaV1.6) (Homo sapiens, UniProt Q9UQD0); assay: Late sodium current (INaL) inhibition, PatchXpress electrophysiology, hNaV1.6; conditions: 1 μM; HEK-293 cells expressing hNaV1.6; late current evoked by 300 nM ATX-II
T1 construct: expressed in transfected cells; host or cells: HEK-293
Method: HEK-293 cells expressing recombinant, human NaV1.6 (hNaV1.6) were grown in DMEM/high-glucose Dulbecco's modified, 10% FBS, 2 mM sodium pyruvate, 10 mM HEPES and 400 μg/mL G418. Cells were grown to 50%-80% confluency prior to harvesting. […] The onboard liquid handling facility of the PatchXpress was used for dispensing cells and applying test compounds. […] INaL was evoked by depolarizing pulses to 0 mV for 200 ms from a non-inactivating holding potential (e.g., −120 mV) at a frequency of 0.1 Hz. INaL amplitude and stability were determined by analyzing the mean current amplitude over the final 20 ms of the test pulse. […] Percent steady-state inhibition of INaL was calculated as: [(INaL_compound)/(INaL_control)]*100, where INaL_compound and INaL_control represent INaL recorded in the presence or absence of compound, respectively.

hNaV1.2-WT = target: T2, hNaV1.2-WT (Homo sapiens, UniProt Q99250); assay: Voltage step activated (peak) sodium current, PatchXpress, hNaV1.2-WT; conditions: HEK293, HEK-293, steps to 0 mV from half-inactivation holding potential, read-out: hNav1.2 Peak INa (percent inhibition)
T2 construct: expressed in transfected cells; host or cells: HEK-293
Method: (§1) Functional characterization of exemplary compounds to modulate INa expressed by various human isoforms and disease-causing mutant voltage-gated sodium channels was accomplished using the PatchXpress high throughput electrophysiology platform (Molecular Devices, Sunnyvale, CA). HEK-293 cells expressing a recombinant, human NaV1.X sodium channel (either hNaV1.6-WT, hNaV1.6-R223G, hNaV1.6-N984K, hNaV1.6-N1768D, hNaV1.1-WT, hNaV1.2-WT, hNaV1.5-WT, hNaV1.7-WT, or hNaV1.8-WT) were grown in DMEM/high-glucose Dulbecco's modified, 10% FBS, 2 mM sodium pyruvate, 10 mM HEPES and 400 μg/mL G418. Cells were grown to 50%-80% confluency prior to harvesting. Trypsinized cells were washed, allowed to recover for 1 hour and then resuspended in extracellular recording solution at a concentration of 1×10^6 cells/ml. The onboard liquid handling facility of the PatchXpress was used for dispensing cells and applying test compounds. INa amplitude and stability were determined by analyzing the peak current amplitude.
(§2) Peak INa was evoked by depolarizing steps to 0 mV for 20 ms from a holding potential which evoked half-inactivation (e.g., −60 mV) at a frequency of 0.1 Hz. The voltage of half-inactivation was determined for each cell using a 5 sec prepulse to membrane potentials between −120 mV and −20 mV followed immediately by a voltage step to a fully activating membrane voltage (e.g., 0 mV). Following steady state block with exemplary compounds (e.g., as described herein), the degree of inhibition was measured using the average of three consecutive voltage steps. Percent steady-state inhibition of INa was calculated as: [(INa_compound)/(INa_control)]*100, where INa_compound and INa_control represent INa recorded in the presence or absence of compound, respectively.
(§3) In this table, “A” indicates inhibition between less than 0% to 50% and “B” indicates inhibition of greater than 50% and N/A indicates the compound was not tested.

hNaV1.1-WT = target: T3, hNaV1.1-WT (Homo sapiens, UniProt P35498); assay: Voltage step activated (peak) sodium current, PatchXpress, hNaV1.1-WT; conditions: HEK293, HEK-293, steps to 0 mV from half-inactivation holding potential, read-out: hNav1.1 Peak INa (percent inhibition)
T3 construct: expressed in transfected cells; host or cells: HEK-293
Method: as §1, §2, §3

T2 sequence (Q99250 whole entry): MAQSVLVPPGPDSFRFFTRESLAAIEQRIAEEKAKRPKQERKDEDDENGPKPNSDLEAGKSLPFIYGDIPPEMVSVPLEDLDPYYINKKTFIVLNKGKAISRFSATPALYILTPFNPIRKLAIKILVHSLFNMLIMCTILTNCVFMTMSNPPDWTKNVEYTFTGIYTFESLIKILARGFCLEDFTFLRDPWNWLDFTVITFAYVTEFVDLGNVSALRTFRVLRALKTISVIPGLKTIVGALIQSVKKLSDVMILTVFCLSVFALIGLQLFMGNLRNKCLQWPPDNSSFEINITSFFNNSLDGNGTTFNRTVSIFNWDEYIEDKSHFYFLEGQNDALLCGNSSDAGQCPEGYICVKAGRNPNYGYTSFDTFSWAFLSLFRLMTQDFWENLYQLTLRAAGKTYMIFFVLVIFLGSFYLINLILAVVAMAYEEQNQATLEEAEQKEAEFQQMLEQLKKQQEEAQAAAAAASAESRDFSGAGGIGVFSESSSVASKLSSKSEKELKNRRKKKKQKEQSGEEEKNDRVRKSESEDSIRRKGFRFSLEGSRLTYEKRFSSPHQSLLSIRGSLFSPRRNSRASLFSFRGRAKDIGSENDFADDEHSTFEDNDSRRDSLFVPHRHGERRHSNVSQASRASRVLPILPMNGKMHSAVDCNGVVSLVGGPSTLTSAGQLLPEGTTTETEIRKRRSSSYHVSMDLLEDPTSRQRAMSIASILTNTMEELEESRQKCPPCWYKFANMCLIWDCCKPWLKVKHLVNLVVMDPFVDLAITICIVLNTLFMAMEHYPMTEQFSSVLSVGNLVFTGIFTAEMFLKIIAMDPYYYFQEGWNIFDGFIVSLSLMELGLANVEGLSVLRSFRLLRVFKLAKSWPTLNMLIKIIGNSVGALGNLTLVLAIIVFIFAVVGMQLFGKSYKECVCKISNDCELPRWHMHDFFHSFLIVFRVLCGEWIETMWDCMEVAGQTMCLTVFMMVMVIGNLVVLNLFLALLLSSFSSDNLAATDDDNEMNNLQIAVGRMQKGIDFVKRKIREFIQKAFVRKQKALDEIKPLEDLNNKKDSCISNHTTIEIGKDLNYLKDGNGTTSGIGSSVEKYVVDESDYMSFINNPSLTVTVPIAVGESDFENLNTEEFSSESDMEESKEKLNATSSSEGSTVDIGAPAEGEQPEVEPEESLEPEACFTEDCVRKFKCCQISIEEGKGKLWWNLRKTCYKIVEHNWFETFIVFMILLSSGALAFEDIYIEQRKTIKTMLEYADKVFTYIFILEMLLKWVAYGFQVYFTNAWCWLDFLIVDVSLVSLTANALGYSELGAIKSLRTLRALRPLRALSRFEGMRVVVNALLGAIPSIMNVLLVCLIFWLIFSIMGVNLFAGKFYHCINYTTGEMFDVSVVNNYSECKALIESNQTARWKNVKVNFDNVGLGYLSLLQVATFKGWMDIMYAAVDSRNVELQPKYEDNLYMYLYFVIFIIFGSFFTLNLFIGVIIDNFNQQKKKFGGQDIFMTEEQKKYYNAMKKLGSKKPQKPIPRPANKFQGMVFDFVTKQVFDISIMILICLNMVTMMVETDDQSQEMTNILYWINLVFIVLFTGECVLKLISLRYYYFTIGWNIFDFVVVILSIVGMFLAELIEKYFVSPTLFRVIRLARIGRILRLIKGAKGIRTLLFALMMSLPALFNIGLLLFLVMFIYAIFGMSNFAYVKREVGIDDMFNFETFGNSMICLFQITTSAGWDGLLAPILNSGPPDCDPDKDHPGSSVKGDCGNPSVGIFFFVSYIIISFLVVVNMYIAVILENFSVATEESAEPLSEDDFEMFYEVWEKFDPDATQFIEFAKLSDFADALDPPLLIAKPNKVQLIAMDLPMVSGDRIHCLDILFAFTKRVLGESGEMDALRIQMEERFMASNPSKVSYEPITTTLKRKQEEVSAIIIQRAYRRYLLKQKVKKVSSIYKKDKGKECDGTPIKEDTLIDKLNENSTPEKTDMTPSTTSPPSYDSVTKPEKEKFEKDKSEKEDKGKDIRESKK
T1 sequence (Q9UQD0 whole entry): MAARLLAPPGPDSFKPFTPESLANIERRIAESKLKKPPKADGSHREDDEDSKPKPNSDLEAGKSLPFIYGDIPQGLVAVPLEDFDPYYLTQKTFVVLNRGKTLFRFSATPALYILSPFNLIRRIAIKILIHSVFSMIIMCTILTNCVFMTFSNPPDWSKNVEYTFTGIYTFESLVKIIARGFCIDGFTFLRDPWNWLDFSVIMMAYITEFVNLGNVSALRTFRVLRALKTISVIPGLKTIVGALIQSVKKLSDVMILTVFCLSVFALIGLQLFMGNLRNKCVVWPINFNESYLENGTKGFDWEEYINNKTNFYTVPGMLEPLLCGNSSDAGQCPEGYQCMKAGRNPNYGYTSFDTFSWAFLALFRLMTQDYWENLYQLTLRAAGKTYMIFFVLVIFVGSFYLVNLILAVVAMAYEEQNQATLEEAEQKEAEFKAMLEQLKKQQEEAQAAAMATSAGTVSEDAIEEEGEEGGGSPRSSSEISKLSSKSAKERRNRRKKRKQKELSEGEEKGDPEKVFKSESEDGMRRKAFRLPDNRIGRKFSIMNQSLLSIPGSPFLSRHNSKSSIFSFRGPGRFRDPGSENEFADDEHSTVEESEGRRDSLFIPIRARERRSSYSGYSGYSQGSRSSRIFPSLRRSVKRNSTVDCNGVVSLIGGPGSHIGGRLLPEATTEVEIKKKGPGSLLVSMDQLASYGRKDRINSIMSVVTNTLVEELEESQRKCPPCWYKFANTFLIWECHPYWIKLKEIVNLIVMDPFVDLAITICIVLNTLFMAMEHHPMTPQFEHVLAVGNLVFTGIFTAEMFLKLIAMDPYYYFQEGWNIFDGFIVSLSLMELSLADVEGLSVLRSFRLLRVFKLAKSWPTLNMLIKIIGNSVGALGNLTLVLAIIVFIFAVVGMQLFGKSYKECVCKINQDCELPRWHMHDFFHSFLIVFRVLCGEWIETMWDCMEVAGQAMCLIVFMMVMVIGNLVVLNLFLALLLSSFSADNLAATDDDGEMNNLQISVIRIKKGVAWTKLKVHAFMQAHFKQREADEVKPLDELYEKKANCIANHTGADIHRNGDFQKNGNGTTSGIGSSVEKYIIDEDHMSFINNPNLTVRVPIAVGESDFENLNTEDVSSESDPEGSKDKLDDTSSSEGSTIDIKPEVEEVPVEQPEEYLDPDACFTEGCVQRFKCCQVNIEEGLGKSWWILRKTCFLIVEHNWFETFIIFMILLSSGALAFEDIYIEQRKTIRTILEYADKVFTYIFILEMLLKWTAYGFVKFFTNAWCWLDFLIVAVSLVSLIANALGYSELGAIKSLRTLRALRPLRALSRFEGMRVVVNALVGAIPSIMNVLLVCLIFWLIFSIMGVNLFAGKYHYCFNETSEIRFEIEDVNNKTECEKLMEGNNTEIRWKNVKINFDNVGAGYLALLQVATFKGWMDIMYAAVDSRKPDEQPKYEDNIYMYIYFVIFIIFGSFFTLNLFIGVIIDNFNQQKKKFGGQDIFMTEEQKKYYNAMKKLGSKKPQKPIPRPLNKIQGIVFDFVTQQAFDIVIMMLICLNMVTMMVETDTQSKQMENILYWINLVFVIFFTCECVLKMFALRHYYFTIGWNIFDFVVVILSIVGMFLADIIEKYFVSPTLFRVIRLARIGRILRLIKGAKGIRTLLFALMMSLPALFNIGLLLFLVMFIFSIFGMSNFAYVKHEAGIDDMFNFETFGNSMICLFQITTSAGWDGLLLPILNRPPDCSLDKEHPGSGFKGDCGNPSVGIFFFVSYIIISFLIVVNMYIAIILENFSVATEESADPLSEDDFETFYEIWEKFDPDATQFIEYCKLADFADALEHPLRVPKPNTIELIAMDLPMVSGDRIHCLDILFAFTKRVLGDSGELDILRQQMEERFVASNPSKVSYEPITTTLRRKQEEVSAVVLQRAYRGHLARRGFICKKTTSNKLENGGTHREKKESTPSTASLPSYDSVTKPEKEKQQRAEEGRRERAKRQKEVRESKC

inhibition at 1 µM (hNaV1.2-WT): < 50%
inhibition at 1 µM (hNaV1.1-WT): > 50%
Structure (SMILES): CCOC(F)(F)c1nnc2cnc(-c3cnc(OCC(F)(F)F)c(F)c3)cn12 [Compound 10]

inhibition at 1 µM (hNaV1.2-WT): > 50%
inhibition at 1 µM (hNaV1.1-WT): > 50%
Structure (SMILES): COC(F)(F)c1nnc2cnc(-c3cnc(O[C@@H](C)C(F)(F)F)c(F)c3)cn12 [Compound 6B, 3-[difluoro(methoxy)methyl]-6-[5-fluoro-6-[(1S)-2,2,2-trifluoro-1-methyl-ethoxy]-3-pyridyl]-[1,2,4]triazolo[4,3-a]pyrazine]

inhibition at 1 µM (hNaV1.1-WT): > 50%
Structure (SMILES): CCOC(F)(F)c1nnc2ccc(-c3cnc(OCC(F)(F)F)c(F)c3)cn12 [Compound 3, 3-[ethoxy(difluoro)methyl]-6-[5-fluoro-6-(2,2,2-trifluoroethoxy)-3-pyridyl]-[1,2,4]triazolo[4,3-a]pyridine]

inhibition at 1 µM (hNaV1.2-WT): < 50%
inhibition at 1 µM (hNaV1.1-WT): > 50%
Structure (SMILES): COC(F)(F)c1nnc2cnc(-c3cnc(OCC(F)(F)F)c(F)c3)cn12 [Compound 53, 3-[difluoro(methoxy)methyl]-6-[5-fluoro-6-(2,2,2-trifluoroethoxy)-3-pyridyl]-[1,2,4]triazolo[4,3-a]pyrazine]

Second part, the compound before the results:

Structure (SMILES): COC(F)(F)c1nnc2cnc(-c3ccc(OC4(C(F)(F)F)CCC4)nc3)cn12 [Compound 57]
NaV 1.6 Assay Data (percent inhibition of INaL at hNaV1.6) (human NaV1.6 (hNaV1.6)): C (“C” indicates inhibition of greater than 70%)

Structure (SMILES): COC(F)(F)c1nnc2cnc(-c3ccc(O[C@@H](C)C(F)(F)F)nc3)cn12 [Compound 59, 3-[difluoro(methoxy)methyl]-6-[6-[(1S)-2,2,2-trifluoro-1-methyl-ethoxy]-3-pyridyl]-[1,2,4]triazolo[4,3-a]pyrazine]
inhibition at 1 µM (hNaV1.2-WT): > 50%
inhibition at 1 µM (hNaV1.1-WT): > 50%

Structure (SMILES): COC(F)(F)c1nnc2cnc(-c3ccc(O[C@H](C)C(F)(F)F)nc3)cn12 [Compound 62, 3-[difluoro(methoxy)methyl]-6-[6-[(1R)-2,2,2-trifluoro-1-methyl-ethoxy]-3-pyridyl]-[1,2,4]triazolo[4,3-a]pyrazine]
inhibition at 1 µM (hNaV1.2-WT): > 50%
inhibition at 1 µM (hNaV1.1-WT): > 50%

Structure (SMILES): COC(F)(F)c1nnc2cnc(-c3ccc(OC(C)(C)C(F)(F)F)nc3)cn12 [Compound 56, 3-[difluoro(methoxy)methyl]-6-[6-(2,2,2-trifluoro-1,1-dimethyl-ethoxy)-3-pyridyl]-[1,2,4]triazolo[4,3-a]pyrazine]
inhibition at 1 µM (hNaV1.2-WT): > 50%
inhibition at 1 µM (hNaV1.1-WT): > 50%

Structure (SMILES): COC(F)(F)c1nnc2cnc(-c3cnc(OC4(C(F)(F)F)CCC4)c(F)c3)cn12 [Compound 11, 3-[difluoro(methoxy)methyl]-6-[5-fluoro-6-[1-(trifluoromethyl)cyclobutoxy]-3-pyridyl]-[1,2,4]triazolo[4,3-a]pyrazine]
inhibition at 1 µM (hNaV1.1-WT): > 50%

Source: US11866439B2, “Ion channel modulators” (Praxis Precision Medicines, Inc., priority 2018, dated 2024)
